Consider four compounds from US11730712B2, “Functionalized long-chain hydrocarbon mono- and di-carboxylic acids and derivatives thereof, and their use for the prevention or treatment of disease” (ESPERVITA THERAPEUTICS, INC., priority 2021, dated 2023).

Each structure is given as a SMILES string. Several values for one entry are separate records, joined by “and”; a condition that tells them apart may be missing. Equal values may be shown once.

Assay [1] concerns the target T1, Aurora A (Homo sapiens, UniProt O14965).
T1 sequence (O14965 1-403): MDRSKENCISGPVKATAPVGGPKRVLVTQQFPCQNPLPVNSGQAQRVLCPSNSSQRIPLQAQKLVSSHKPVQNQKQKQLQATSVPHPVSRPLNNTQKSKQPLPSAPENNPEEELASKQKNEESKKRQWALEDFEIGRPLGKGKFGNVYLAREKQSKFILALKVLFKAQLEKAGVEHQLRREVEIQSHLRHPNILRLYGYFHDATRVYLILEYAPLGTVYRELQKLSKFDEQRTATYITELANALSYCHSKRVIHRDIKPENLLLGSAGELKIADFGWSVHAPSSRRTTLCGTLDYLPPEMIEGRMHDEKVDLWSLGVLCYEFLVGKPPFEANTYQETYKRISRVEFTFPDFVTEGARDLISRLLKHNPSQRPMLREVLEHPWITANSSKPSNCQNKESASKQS
As to the kind of experiment: Kinase assay, wild type kinases. The class given is biochemical. Particulars: compound 10 μM, 10 μM ATP, duplicate (Data 1, Data 2), >100 activation, <100 inhibition; for remaining activity at 10 µM: read-out: % Enzyme Activity (relative to DMSO controls), Aurora A.

For assay [2], the target named is Aurora B (Homo sapiens, UniProt Q96GD4). The experiment in a line: Kinase assay, wild type kinases. The class given is biochemical. To be noted: compound 10 μM, 10 μM ATP, duplicate (Data 1, Data 2), >100 activation, <100 inhibition; for remaining activity at 10 µM: read-out: % Enzyme Activity (relative to DMSO controls), Aurora B.
The target of assay [3] is T2, AURORA C (Homo sapiens, UniProt Q9UQB9).
T2 sequence (Q9UQB9 1-309): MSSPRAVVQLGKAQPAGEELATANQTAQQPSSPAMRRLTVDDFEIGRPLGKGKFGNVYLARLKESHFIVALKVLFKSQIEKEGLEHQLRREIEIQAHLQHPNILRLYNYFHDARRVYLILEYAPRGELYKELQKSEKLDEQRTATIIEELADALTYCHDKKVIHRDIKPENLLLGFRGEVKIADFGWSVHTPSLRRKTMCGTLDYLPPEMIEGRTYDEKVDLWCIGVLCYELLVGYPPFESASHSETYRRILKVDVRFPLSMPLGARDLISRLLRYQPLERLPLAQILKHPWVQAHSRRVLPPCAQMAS
As to the kind of experiment: Kinase assay, wild type kinases. To be noted: compound 10 μM, 10 μM ATP, duplicate (Data 1, Data 2), >100 activation, <100 inhibition; for remaining activity at 10 µM: read-out: % Enzyme Activity (relative to DMSO controls), AURORA C. The class given is biochemical.

The target of assay [4] is c-Kit (Homo sapiens, UniProt P10721). The experiment in a line: Kinase assay, wild type kinases. Type of assay: biochemical. Particulars: compound 10 μM, 10 μM ATP, duplicate (Data 1, Data 2), >100 activation, <100 inhibition; for remaining activity at 10 µM: read-out: % Enzyme Activity (relative to DMSO controls), c-Kit.
Assay [5] addresses CAMK2g (Homo sapiens, UniProt Q13555). As to the kind of experiment: Kinase assay, wild type kinases. Type of assay: biochemical. Particulars: compound 10 μM, 10 μM ATP, duplicate (Data 1, Data 2), >100 activation, <100 inhibition; for remaining activity at 10 µM: read-out: % Enzyme Activity (relative to DMSO controls), CAMK2g.
The target of assay [6] is GSK3b (Homo sapiens, UniProt P49841). The experiment in a line: Kinase assay, wild type kinases. The class given is biochemical. Particulars: compound 10 μM, 10 μM ATP, duplicate (Data 1, Data 2), >100 activation, <100 inhibition; for remaining activity at 10 µM: read-out: % Enzyme Activity (relative to DMSO controls), GSK3b.
Assay [7] addresses MLCK/MYLK (Homo sapiens, UniProt Q15746). As to the kind of experiment: Kinase assay, wild type kinases. Type of assay: biochemical. Particulars: compound 10 μM, 10 μM ATP, duplicate (Data 1, Data 2), >100 activation, <100 inhibition; for remaining activity at 10 µM: read-out: % Enzyme Activity (relative to DMSO controls), MLCK/MYLK.
For assay [8], the target named is TNIK (Homo sapiens, UniProt Q9UKE5). As to the kind of experiment: Kinase assay, wild type kinases. Type of assay: biochemical. To be noted: compound 10 μM, 10 μM ATP, duplicate (Data 1, Data 2), >100 activation, <100 inhibition; for remaining activity at 10 µM: read-out: % Enzyme Activity (relative to DMSO controls), TNIK.
Assay [9] has as its system human hematopoietic stem and progenitor cells (CD45+CD34+). As to the kind of experiment: Megakaryopoiesis and platelet production in cultured hematopoietic stem and progenitor cells. Type of assay: cell-based. To be noted: 30 μM, added day 6. As to the method:
Materials and Methods. Hematopoietic stem and progenitor cells, identified as viable CD45+CD34+ cells, were isolated from peripheral blood of healthy donors by a method known in the art (see Ivetic N. Nazi I, Karim N et al. Producing megakaryocytes from a human peripheral blood source. Transfusion 2016; 56:1066-74). These isolated cells were then analyzed for purity before being expanded for four days using a commercial supplement to increase their cell population. After expansion, the cells were analyzed for purity, washed, and stimulated with a saturating concentration of thrombopoietin (20 ng/mL) and stem cell factor (50 ng/mL) to begin megakaryopoiesis. Compound I-32 and Compound I-1 were added at this timepoint at a concentration of 30 μM. The cells were then cultured for 8 days to develop into megakaryocytes and analyzed via flow cytometry to assess their number, maturity, and platelet count as defined by CD41a, CD42b and Calcein-AM expression. In addition, Compound I-32 and Compound I-1 were added to cells during the later stages of development (day 6) to assess their impact on maturation. ABT-737 ([…]) was used as a positive control and a DMSO vehicle control (<0.15% v/v) was the negative control. […]
Statistical analysis. Statistical analyses were carried out by comparing effects on measured parameters in comparison to vehicle control. […]

GSK3b, sequence (P49841 whole entry, species assumed): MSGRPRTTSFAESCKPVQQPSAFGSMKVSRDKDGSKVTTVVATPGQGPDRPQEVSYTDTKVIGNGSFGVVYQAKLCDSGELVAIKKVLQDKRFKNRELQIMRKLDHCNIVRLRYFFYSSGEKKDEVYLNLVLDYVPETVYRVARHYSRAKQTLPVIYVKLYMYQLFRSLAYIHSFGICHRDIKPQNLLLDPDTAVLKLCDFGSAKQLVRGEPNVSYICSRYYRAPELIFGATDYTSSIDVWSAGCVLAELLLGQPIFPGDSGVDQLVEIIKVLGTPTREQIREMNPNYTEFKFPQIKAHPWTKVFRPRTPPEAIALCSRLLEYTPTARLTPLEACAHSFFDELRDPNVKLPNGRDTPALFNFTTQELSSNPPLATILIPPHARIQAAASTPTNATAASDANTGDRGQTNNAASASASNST
c-Kit, sequence (P10721 26-976): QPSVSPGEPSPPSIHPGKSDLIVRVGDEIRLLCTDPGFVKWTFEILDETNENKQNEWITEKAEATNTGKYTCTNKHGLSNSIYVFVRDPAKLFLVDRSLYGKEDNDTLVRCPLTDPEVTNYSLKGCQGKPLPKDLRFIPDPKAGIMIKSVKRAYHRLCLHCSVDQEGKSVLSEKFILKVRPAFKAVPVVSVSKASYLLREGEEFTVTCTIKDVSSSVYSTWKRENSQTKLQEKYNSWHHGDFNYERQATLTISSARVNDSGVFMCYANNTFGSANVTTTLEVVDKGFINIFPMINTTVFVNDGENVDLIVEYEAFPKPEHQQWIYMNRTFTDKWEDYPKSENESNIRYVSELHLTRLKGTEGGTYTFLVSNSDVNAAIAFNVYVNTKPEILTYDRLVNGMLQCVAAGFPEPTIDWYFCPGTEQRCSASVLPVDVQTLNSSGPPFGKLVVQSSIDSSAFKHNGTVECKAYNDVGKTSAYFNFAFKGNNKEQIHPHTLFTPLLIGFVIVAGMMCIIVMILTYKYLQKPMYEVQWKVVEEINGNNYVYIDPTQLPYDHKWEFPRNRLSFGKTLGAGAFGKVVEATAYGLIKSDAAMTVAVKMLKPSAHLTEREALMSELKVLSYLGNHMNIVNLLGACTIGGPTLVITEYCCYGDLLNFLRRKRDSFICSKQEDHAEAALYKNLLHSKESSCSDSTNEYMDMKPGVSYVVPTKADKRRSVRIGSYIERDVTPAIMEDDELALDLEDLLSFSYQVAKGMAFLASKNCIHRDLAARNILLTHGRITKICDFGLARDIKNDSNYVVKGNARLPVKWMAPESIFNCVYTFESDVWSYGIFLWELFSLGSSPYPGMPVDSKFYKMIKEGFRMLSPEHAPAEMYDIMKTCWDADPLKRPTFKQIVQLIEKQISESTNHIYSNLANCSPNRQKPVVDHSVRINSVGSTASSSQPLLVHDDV
Aurora B, sequence (Q96GD4 whole entry): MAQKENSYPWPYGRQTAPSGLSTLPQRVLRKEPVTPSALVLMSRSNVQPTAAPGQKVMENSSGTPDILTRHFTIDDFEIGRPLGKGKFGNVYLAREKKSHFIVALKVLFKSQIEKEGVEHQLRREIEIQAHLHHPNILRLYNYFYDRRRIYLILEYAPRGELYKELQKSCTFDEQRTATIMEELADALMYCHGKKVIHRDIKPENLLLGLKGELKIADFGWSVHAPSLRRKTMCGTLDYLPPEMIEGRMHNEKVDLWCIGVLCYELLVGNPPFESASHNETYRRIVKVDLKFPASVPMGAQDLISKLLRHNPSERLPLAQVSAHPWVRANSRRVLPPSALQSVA
TNIK, sequence (Q9UKE5 whole entry, species assumed): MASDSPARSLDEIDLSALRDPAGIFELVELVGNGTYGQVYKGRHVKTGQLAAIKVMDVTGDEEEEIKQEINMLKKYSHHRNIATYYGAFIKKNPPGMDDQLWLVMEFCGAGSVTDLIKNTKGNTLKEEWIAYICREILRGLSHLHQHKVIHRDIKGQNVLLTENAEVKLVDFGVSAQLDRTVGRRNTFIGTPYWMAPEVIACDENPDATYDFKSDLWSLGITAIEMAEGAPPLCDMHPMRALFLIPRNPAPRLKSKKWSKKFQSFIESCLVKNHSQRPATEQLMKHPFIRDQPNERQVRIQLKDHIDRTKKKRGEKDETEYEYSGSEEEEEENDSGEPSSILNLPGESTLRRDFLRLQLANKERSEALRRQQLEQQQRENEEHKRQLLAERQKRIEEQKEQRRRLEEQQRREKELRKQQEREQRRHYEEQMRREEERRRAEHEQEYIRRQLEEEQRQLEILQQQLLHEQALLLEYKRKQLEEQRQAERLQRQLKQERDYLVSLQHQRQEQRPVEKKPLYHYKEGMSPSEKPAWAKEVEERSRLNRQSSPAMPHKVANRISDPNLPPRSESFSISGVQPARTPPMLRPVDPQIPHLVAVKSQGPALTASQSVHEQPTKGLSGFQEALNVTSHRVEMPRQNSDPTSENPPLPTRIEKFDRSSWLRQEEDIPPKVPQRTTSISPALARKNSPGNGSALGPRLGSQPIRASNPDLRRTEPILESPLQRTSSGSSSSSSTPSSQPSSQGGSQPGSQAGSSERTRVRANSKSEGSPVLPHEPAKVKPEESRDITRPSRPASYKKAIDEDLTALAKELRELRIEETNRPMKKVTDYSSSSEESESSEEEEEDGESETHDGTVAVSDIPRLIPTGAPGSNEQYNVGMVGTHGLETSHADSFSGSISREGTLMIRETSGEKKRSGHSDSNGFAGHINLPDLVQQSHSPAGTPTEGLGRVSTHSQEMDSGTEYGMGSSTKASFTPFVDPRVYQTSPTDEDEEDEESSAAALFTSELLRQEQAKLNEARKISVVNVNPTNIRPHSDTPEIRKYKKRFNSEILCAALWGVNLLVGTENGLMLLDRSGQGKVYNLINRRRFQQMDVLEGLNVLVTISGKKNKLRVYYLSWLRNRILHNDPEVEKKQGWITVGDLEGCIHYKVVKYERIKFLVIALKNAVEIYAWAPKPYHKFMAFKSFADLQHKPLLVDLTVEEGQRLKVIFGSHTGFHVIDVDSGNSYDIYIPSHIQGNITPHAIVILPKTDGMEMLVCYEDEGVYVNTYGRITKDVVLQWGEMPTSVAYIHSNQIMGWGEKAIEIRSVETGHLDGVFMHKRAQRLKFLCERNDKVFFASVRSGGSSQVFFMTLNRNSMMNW

As for `CC(C)(CCCCc1ccc(CCCCC(C)(C)C(=O)O)cc1)C(=O)O` [Compound I-1, 6-[4-(5-carboxy-5-methylhexyl)-phenyl]-2,2-dimethylhexanoic acid], the remaining activity at 10 µM was 89.1% in [1]; 69% in assay [2]; 101% in [3]; 85.5% in assay [4]; 60.6% in assay [5]; 83.2% in [6]. For the same compound, the remaining activity at 10 µM in assay [7] was determined as 110%; in assay [8], 106%. Besides, in assay [9], the “inhibition of megakaryopoiesis/platelet parameters after addition on day 6 of culture” value is reported as “no inhibition detected”.

Regarding `CC(C)(CCCCc1cccc(CCCCC(C)(C)C(=O)SCCNC(=O)CCNC(=O)[C@H](O)C(C)(C)COP(=O)(O)OP(=O)(O)OC[C@H]2O[C@@H](n3cnc4c(N)ncnc43)[C@H](O)[C@@H]2OP(=O)(O)O)c1)C(=O)O` [Compound I-32-CoA, 6-[3-(5-Carboxy-5-methylhexyl)-phenyl]-2,2-dimethylhexanoic acid Coenzyme A Ester], the “% Enzyme Activity (relative to DMSO controls), Aurora A” value in assay [1] is 13.04% and 11.95%. Besides, in [2], the “% Enzyme Activity (relative to DMSO controls), Aurora B” value was 33.27% and 30.67%. In addition, the “% Enzyme Activity (relative to DMSO controls), AURORA C” value in assay [3] was 48.46% and 46.83%. For the same compound, the “% Enzyme Activity (relative to DMSO controls), c-Kit” value in assay [4] was 49.53% and 49.21%. Moreover, in assay [5], the “% Enzyme Activity (relative to DMSO controls), CAMK2g” value is 35.05% and 34.20%. In addition, the “% Enzyme Activity (relative to DMSO controls), GSK3b” value in assay [6] is 23.69% and 22.51%. Moreover, in assay [7], the “% Enzyme Activity (relative to DMSO controls), MLCK/MYLK” value was 3.21% and 1.59%. Besides, in assay [8], the “% Enzyme Activity (relative to DMSO controls), TNIK” value is 70.02% and 66.13%.

Turning to `CC(C)(CCCCc1ccc(CCCCC(C)(C)C(=O)SCCNC(=O)CCNC(=O)[C@H](O)C(C)(C)COP(=O)(O)OP(=O)(O)OC[C@H]2O[C@@H](n3cnc4c(N)ncnc43)[C@H](O)[C@@H]2OP(=O)(O)O)cc1)C(=O)O` [Compound I-1-CoA, 6-[4-(5-carboxy-5-methylhexyl)-phenyl]-2,2-dimethylhexanoic acid Coenzyme A ester], the “% Enzyme Activity (relative to DMSO controls), Aurora A” value in assay [1] was 12.44% and 12.42%. Moreover, the “% Enzyme Activity (relative to DMSO controls), Aurora B” value in assay [2] is 36.79% and 32.68%. In addition, in assay [3], the “% Enzyme Activity (relative to DMSO controls), AURORA C” value is 78.81% and 72.15%. Besides, in assay [4], the “% Enzyme Activity (relative to DMSO controls), c-Kit” value was 73.56% and 73.24%. Besides, the “% Enzyme Activity (relative to DMSO controls), CAMK2g” value in assay [5] was 53.91% and 53.05%. The “% Enzyme Activity (relative to DMSO controls), GSK3b” value in [6] was 63.29% and 62.44%. The “% Enzyme Activity (relative to DMSO controls), MLCK/MYLK” value in assay [7] is 2.06% and −0.71%. The “% Enzyme Activity (relative to DMSO controls), TNIK” value in [8] is 39.22% and 36.50%.

For the compound `CC(C)(CCCCc1cccc(CCCCC(C)(C)C(=O)O)c1)C(=O)O` [Compound I-32, 6-[3-(5-carboxy-5-methylhexyl)-phenyl]-2,2-dimethylhexanoic acid], the remaining activity at 10 µM in [1] worked out at 94.9%; in assay [2], 71.4%; in assay [3], 104%; in assay [4], 73.6%; in assay [5], 73.2%; in assay [6] it was 78%. The remaining activity at 10 µM amounted to 106% in [7] and 101% in [8]. Also, in assay [9], the “inhibition of megakaryopoiesis/platelet parameters after addition on day 6 of culture” value was “no inhibition detected”.
